Values of other authors as cited in Sander's compilation of Henry's law constants (doi:10.1093/bja/45.3.294).

Test: Henry solubility constant Hcp at 298.15 K (mol/(m3 Pa))
Conditions: reference: Allott et al. (1973); cited value

| SMILES | Henry solubility constant Hcp |
| --- | --- |
| C=COCC(F)(F)F [(2,2,2-trifluoroethoxy)-ethene] | 0.00055 |
| FC(Br)C(F)(F)F (stereo not given) [1-bromo-1,2,2,2-tetrafluoroethane] | 0.00017 |
| [Kr] [krypton] | 2.5e-05 |
| [N-]=[N+]=O [dinitrogen monoxide] | 0.00025 |
| ClC=C(Cl)Cl [trichloroethene] | 0.0011 |
| COC(F)(F)C(Cl)Cl [2,2-dichloro-1,1-difluoro-1-methoxyethane] | 0.003 |
| CCOCC [diethyl ether] | 0.0096 |
| FC(F)(F)C(Cl)Br (stereo not given) [1-bromo-1-chloro-2,2,2-trifluoroethane] | 0.00053 |
| CCCl [chloroethane] | 0.00073 |
| [Xe] [xenon] | 4.5e-05 |
| C=C [ethene] | 4.6e-05 |
| C1CC1 [cyclopropane] | 0.00011 |

Test: Henry solubility constant Hcp at 310 K (mol/(m3 Pa))
Conditions: reference: Allott et al. (1973); cited value

| SMILES | Henry solubility constant Hcp at 310 K |
| --- | --- |
| C=COC=C [divinyl ether] | 0.00054 |
| FC(F)OC(F)(F)C(F)Cl (stereo not given) [2-chloro-1,1,2-trifluoroethyl difluoromethyl ether] | 0.0003 |
| FC(F)OC(Cl)C(F)(F)F (stereo not given) [1-chloro-2,2,2-trifluoroethyl difluoromethyl ether] | 0.00024 |
